Assay results as given in ChEMBL document CHEMBL4304773, “Nitroimidazole-containing compounds and their antibacterial and antitubercular activities” (2019).

Legend:
Assay type in all cases: functional
Helicobacter pylori [1] = experiment: Antibacterial activity against drug-sensitive Helicobacter pylori assessed as zone of inhibition at 8 ug/disc; conditions: read-out: IZ
Helicobacter pylori [2] = experiment: Antibacterial activity against metronidazole-resistant Helicobacter pylori
Helicobacter pylori [3] = experiment: Antibacterial activity against drug-resistant Helicobacter pylori assessed as zone of inhibition at 8 ug/disc; conditions: read-out: IZ
Clostridioides difficile [4] = experiment: Antibacterial activity against Clostridium difficile ATCC 43603 assessed as zone of inhibition at 2.5 ug/disc after 24 hrs; conditions: ATCC 43603, 24 h, read-out: IZ
Clostridioides difficile [5] = experiment: Antibacterial activity against Clostridium difficile 630 assessed as zone of inhibition at 2.5 ug/disc after 24 hrs; conditions: Clostridioides difficile, 630, 24 h; read-out: IZ
Helicobacter pylori [6] = experiment: Antibacterial activity against Helicobacter pylori clinical isolate assessed as zone of inhibition at 8 ug/disc; conditions: read-out: IZ
Clostridioides difficile [7] = experiment: Antibacterial activity against Clostridium difficile R20291 assessed as zone of inhibition at 2.5 ug/disc after 24 hrs; conditions: read-out: IZ

SMILES: Cc1ncc([N+](=O)[O-])n1CCO [METRONIDAZOLE]
- zone of inhibition at 8 µg/disc (Helicobacter pylori [1]): 18 mm
- MIC90 (Helicobacter pylori [2]): > 32 µg/mL
- zone of inhibition at 8 µg/disc (Helicobacter pylori [3]): 11 mm
- zone of inhibition at 2.5 µg/disc (Clostridioides difficile [4]): 9 to 22 mm
- zone of inhibition at 2.5 µg/disc (Clostridioides difficile [5]): 9 to 22 mm
- zone of inhibition at 8 µg/disc (Helicobacter pylori [6]): 16.3 mm
- zone of inhibition at 2.5 µg/disc (Clostridioides difficile [7]): 9 to 22 mm
